Among the data in patent US7115624B1, “Method of inhibiting protein tyrosine phosphatase 1B and/or T-cell protein tyrosine phosphatase 4 and/or other PTPases with an Asp residue at position 48” (Novo Nordisk A/S, priority 1999, dated 2006) are Ki values, retold here.

Common to all, as to type: biochemical
The target in experiment [1] is T1, PTP1B (Homo sapiens, UniProt P18031).
T1 sequence (P18031 1-321): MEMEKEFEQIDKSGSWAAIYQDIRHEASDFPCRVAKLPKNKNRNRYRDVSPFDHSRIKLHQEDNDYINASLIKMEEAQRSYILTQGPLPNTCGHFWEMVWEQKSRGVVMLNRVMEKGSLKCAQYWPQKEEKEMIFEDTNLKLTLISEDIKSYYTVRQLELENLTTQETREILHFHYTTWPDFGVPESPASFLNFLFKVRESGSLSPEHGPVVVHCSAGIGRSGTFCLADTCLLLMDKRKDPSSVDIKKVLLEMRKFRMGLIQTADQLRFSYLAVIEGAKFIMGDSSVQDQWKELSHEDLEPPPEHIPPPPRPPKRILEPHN
In words: PTPase inhibition, p-nitrophenyl phosphate substrate, Ki. The following applies: pH 7.0; wt (Table 4); read-out: Ki values, PTP1B wt.

In experiment [2] the target is T2, PTPH1 (Homo sapiens, UniProt P26045).
T2 sequence (P26045 646-901 limits assumed): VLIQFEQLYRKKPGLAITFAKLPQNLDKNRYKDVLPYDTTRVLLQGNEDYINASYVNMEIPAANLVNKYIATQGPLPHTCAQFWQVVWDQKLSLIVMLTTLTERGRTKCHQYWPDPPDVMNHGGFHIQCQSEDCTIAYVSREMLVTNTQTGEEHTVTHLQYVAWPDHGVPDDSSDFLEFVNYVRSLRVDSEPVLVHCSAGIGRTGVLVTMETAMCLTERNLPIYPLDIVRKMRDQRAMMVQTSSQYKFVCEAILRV
The experiment is described as above. The conditions noted are these: pH 7.0; wt (Table 4). From the text: (§1) To test directly, whether the above compound was addressing the proposed region of PTP1B, Compound N was subjected to detailed enzyme kinetic analyses using a set of wildtype (wt) and mutant PTPs. Two enzymes, PTPα and PTPH1, were chosen as representatives for PTPs with bulky side chains in the 259 position. Using a combination of wt and PTP mutants it has previously been shown that Gln259 in PTPα, in addition to its direct effect, also indirectly influences the binding of inhibitors and substrates, most likely due to a negative influence on the rotational freedom of the side chain of Gln262 (Peters et al., J. Biol. Chem. 275: 18201–18209 (2000)). As described above, selectivity can be obtained by introducing a basic nitrogen into 2-(oxalylamino)-4,5,6,7-tetrahydrobenzo[b]thiophene-3-carboxylic acid that causes attraction in PTP1B due to salt bridge formation to Asp48 and repulsion against PTPs with an asparagine in the 48 position, such as PTPα. To analyze if the current approach based on steric hindrance is generally applicable, it was decided to include a PTP with an aspartic acid in position 48. PTPH1, which like PTP1B is an intracellular enzyme with one domain only, was selected for these studies. The results of these studies are shown below (Table 4).
(§2) The assay conditions are as follows.

The target in experiment [3] is T3, PTPα (Homo sapiens, UniProt P18433).
T3 construct: PTPα D1
T3 sequence (P18433 241-501 limits assumed): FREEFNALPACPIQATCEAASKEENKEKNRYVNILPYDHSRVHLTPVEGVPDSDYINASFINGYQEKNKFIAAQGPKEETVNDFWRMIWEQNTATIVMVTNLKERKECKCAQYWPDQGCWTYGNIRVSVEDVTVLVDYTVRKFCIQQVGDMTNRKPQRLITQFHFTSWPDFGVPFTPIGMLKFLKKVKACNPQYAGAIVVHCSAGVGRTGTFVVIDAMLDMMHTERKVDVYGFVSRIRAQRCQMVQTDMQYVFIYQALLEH
The experiment is described as above. The following applies: pH 7.0; wt (Table 4).
Source text: as §1, §2

Experiment [4] addresses T4, PTPε (Homo sapiens, UniProt P23469).
T4 construct: PTPε D1
Described as above. The conditions noted are these: pH 7.0 (Table 5); read-out: Ki values, PTPε.
Method: (§3) The assay conditions are as follows. Appropriate concentrations of the compounds of the invention (e.g., 0.1 to 100 μM) are added to the reaction mixtures containing different concentrations of the substrate, p-nitrophenyl phosphate (range: 0.16 to 10 mM—final assay concentration). The buffer used was 50 mM HEPES pH 7.0, 100 mM sodium chloride, 0.1% (w/v) bovine serum albumin, 5 mM glutathione, and 1 mM EDTA. The reaction was started by addition of the enzyme and carried out in microtiter plates at 25° C. for 60 minutes. The reactions are stopped by addition of NaOH. […] The data are analyzed using nonlinear regression fit to classical Michaelis Menten enzyme kinetic models. Inhibition is expressed as Ki values in μM.

The target in experiment [5] is PTPβ (Homo sapiens, UniProt P23467). The description is as above. The following applies: pH 7.0 (Table 5); read-out: Ki values, PTPβ.
PTPβ, sequence (P23467 1703-1963 limits assumed): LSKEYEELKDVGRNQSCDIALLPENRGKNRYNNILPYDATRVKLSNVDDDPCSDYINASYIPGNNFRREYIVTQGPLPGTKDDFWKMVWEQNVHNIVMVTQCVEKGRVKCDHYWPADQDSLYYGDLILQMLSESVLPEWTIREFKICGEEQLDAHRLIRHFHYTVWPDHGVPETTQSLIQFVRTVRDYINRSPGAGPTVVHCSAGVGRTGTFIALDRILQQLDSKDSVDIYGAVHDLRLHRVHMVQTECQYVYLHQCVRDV
Method: as §3
For experiment [6], the target named is T5, CD45 (Homo sapiens, UniProt P08575).
T5 sequence (P08575 599-1306 limits assumed): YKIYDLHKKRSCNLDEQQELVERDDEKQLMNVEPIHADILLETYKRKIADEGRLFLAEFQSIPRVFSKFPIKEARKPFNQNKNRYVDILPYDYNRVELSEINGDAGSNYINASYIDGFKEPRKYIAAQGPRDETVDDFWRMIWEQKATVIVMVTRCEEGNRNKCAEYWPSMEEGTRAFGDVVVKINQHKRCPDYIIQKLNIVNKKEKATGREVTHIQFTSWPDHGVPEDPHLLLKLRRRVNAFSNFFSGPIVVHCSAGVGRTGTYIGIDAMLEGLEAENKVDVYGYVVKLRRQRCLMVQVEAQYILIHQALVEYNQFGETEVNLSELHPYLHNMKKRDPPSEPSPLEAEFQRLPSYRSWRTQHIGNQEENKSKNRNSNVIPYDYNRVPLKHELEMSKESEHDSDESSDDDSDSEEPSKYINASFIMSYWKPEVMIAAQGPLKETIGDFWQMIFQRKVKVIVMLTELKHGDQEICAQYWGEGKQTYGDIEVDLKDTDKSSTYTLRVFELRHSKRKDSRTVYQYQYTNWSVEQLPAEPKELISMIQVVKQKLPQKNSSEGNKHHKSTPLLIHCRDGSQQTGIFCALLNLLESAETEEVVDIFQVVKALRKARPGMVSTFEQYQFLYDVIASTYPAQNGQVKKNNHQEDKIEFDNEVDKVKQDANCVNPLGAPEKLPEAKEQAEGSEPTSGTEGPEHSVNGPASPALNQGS
The description is as above. The following applies: pH 7.0 (Table 5); read-out: Ki values, CD45.
Method: as §3

The target in experiment [7] is PTPα Q259G (Homo sapiens, UniProt P18433, Q483G). Put plainly: Enzyme kinetic analysis with mutant PTPs, Ki. The conditions noted are these: pH 7.0.
PTPα Q259G, sequence (P18433 211-512 Q483G limits assumed): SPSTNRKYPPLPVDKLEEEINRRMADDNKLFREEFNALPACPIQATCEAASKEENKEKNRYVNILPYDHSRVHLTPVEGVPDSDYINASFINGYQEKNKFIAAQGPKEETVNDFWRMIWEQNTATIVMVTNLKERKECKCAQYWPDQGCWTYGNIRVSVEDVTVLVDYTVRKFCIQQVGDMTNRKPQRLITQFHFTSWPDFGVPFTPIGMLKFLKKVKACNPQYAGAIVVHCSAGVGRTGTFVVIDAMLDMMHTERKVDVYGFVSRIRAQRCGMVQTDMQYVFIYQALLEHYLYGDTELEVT
Method: The compounds are evaluated for biological activity with a truncated form of PTP1B (corresponding to the first 321 amino acids), which was expressed in E. coli and purified to apparent homogeneity using published procedures well-known to those skilled in the art. The enzyme reactions are carried out using standard conditions essentially as described by Burke et al. (Biochemistry 35; 15989–15996 (1996)) incorporated by reference. The assay conditions are as follows. Appropriate concentrations of the compounds of the invention (e.g., 0.1 to 100 μM) are added to the reaction mixtures containing different concentrations of the substrate, p-nitrophenyl phosphate (range: 0.16 to 10 mM—final assay concentration). The buffer used was 50 mM HEPES pH 7.0, 100 mM sodium chloride, 0.1% (w/v) bovine serum albumin, 5 mM glutathione, and 1 mM EDTA. […] The enzyme activity was determined by measurement of the absorbance at 405 nm with appropriate corrections for absorbance at 405 nm of the compounds and p-nitrophenyl phosphate. The data are analyzed using nonlinear regression fit to classical Michaelis Menten enzyme kinetic models. Inhibition is expressed as Ki values in μM.
In experiment [8] the target is T6, PTP1B G259Q (Homo sapiens, UniProt P18031, G259Q).
T6 sequence (P18031 1-435 G259Q): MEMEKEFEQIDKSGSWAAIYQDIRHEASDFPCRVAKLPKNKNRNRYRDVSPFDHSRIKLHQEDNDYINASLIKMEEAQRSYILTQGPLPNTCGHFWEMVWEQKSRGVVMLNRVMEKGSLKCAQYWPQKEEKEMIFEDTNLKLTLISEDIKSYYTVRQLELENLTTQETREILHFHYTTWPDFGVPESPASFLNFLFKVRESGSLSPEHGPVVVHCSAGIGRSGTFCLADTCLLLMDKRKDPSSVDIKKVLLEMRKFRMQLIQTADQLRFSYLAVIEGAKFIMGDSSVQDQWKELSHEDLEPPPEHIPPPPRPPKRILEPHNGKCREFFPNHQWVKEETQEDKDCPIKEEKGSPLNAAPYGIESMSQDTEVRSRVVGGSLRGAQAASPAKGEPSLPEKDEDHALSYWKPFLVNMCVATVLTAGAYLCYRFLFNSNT
Put plainly: Enzyme kinetic analysis with mutant PTPs, Ki. The following applies: pH 7.0.
Source text: as §1, §2

T4 sequence (P23469 135-394 limits assumed): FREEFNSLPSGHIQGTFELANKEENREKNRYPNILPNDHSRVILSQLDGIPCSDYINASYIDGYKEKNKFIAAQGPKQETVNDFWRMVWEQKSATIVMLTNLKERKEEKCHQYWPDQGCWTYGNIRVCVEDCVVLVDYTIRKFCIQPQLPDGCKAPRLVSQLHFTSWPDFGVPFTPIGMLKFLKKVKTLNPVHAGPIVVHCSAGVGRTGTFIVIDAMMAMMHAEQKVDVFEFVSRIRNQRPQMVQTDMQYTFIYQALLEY

What is called Ki is a dissociation constant, usually derived from enzyme kinetics or from competition with a known ligand. As to `O=C(O)C(=O)Nc1sc2c(c1C(=O)O)CCOC2COC1=NS(=O)(=O)c2ccccc21` (centres unmarked) [Compound N, 7-(1,1-dioxo-1H-benzo[d]isothiazol-3-yloxymethyl)-2-(oxalyl-amino)-4,7-dihyd ro-5H-thieno[2,3-c]pyran-3-carboxylic acid], the Ki in experiment [1] was 0.4 µM; in experiment [2], 55 µM; in experiment [3] it was greater than 500 µM; in experiment [4] it was 460 µM; in experiment [5] it was 15 µM; in experiment [6], 500 µM. Besides, the inhibition constant Ki in experiment [7] was 70 µM; in experiment [8], 65 µM.
